Experimental data: patent US20250268903A1, “RXFP1 AGONISTS” (BRISTOL-MYERS SQUIBB COMPANY, priority 2021, published 2025)

Target: T1, human RXFP1 (Homo sapiens, UniProt Q9HBX9)
T1 construct: expressed in transfected cells
T1 sequence (Q9HBX9 1-757): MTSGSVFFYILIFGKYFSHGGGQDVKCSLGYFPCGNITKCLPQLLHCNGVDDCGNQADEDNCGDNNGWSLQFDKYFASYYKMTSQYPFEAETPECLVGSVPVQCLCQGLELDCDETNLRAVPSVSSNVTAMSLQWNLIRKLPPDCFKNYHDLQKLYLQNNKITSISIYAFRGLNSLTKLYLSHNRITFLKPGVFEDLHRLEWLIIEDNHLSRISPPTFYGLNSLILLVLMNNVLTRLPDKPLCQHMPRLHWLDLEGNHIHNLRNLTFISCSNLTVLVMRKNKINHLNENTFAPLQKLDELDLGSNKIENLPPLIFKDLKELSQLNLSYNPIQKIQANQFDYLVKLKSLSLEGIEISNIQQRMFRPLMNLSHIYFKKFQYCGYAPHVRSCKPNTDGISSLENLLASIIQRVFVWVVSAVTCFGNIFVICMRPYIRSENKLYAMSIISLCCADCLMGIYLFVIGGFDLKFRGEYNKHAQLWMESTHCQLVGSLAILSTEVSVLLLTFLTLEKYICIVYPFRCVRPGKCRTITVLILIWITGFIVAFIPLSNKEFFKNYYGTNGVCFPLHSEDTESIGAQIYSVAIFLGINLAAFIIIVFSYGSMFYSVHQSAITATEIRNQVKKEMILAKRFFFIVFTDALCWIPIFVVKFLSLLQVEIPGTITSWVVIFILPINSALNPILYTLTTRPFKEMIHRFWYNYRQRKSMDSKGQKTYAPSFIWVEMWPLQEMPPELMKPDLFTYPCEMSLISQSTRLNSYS
Test: hRXFP1 HEK293 cAMP assay (HTRF)
Assay type: cell-based
Conditions: HEK293 cells stably expressing human RXFP1, 30 min at room temperature
Procedure, shortened: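 hRXFP1-HEK293 stable line; HBSS + Ca/Mg, 20 mM HEPES, 0.05% BSA, 0.5 mM IBMX; cpd 0.010 nM–50 μM, 2% DMSO; 30 min RT; lysis, HTRF cAMP detection; 4-PL fit.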

| Compound | EC50 |
| --- | --- |
| COc1ccc(CCCCO)cc1C(=O)N[C@@H]1C2CCC(/C2=C/C(F)(F)F)[C@@H]1C(=O)Nc1ccc(F)c(C(F)(F)F)c1 (stereo partly drawn) [Example 98, (2S,3R,7Z)-N-[4-fluoro-3-(trifluoromethyl)phe-nyl]-3-[5-(4-hydroxybutyl)-2-methoxybenzamido]-7-(2,2,2-trifluoroethylidene)bi-cyclo[2.2.1]heptane-2-carboxamide] | 111 nM |
| COc1ccc(C2CCC(C(F)(F)F)CC2)cc1C(=O)NC1C2CCC(/C2=C/C(F)(F)F)[C@@H]1C(=O)Nc1ccc(F)c(C(F)(F)F)c1 (stereo partly shown) [Example 177, (7Z)-N-[4-fluoro-3-(trifluoromethyl)phe-nyl]-3-{2-methoxy-5-[4-(trifluoromethyl)cyclo-hexyl]benzamido}-7-(2,2,2-trifluoroethylidene)bi-cyclo[2.2.1]heptane-2-carboxamide] | 298 nM |
| COc1c(F)cc(C(=O)NCC2(S(C)(=O)=O)CC2)cc1C(=O)N[C@H]1[C@@H](C(=O)Nc2ccc(F)c(C(F)(F)F)c2)[C@H]2CC[C@@H]1/C2=C\C(F)(F)F [Example 368, 5-fluoro-N3-[(1R,2R,3S,4R,7Z)-3-{[4-fluoro-3-(trifluoromethyl)phenyl]carbamoyl}-7-(2,2,2-trifluoroethylidene)bicyclo[2.2.1]heptan-2-yl]-N1-[(1-methanesulfonyl-cyclopropyl)methyl]-4-methoxybenzene-1,3-dicarboxamide] | 9.1 nM |
| COc1ccc(CCC(C)(C)O)cc1C(=O)N[C@@H]1C2CCC(/C2=C/C2CCC2)[C@@H]1C(=O)Nc1ccc(F)c(C(F)(F)F)c1 (stereo partly drawn) [Example 87, (2S,3R,7Z)-7-(cyclobutylmethyli-dene)-N-[4-fluoro-3-(trifluoromethyl)phe-nyl]-3-[5-(3-hydroxy-3-methylbutyl)-2-methoxybenzamido] bicyclo[2.2.1]heptane-2-carboxamide] | 9 nM |
| COc1ccc(C2CCCC(OC(=O)Nc3ccccc3)C2)cc1C(=O)N[C@@H]1C2CCC(/C2=C/C(F)(F)F)[C@@H]1C(=O)Nc1ccc(F)c(C(F)(F)F)c1 (single isomer, unassigned) [Example 40] | 19 nM |
| COc1ccc(S(=O)(=O)N(CCO)CCO)cc1C(=O)N[C@H]1[C@@H](C(=O)Nc2ccc(F)c(C(F)(F)F)c2)[C@H]2CC[C@@H]1/C2=C\C(F)(F)F [Example 217, (1R,2S,3R,4R,7Z)-3-{5-[bis(2-hydroxyethyl)sulfamoyl]-2-methoxybenzamido}-N-[4-fluoro-3-(trifluoromethyl)phenyl]-7-(2,2,2-trifluoroethylidene) bicyclo[2.2.1] heptane-2-carboxamide] | 221 nM |
| COc1ccc(C(O)C(F)(F)F)cc1C(=O)NC1C2CCC(/C2=C/C(F)(F)F)[C@@H]1C(=O)Nc1ccc(F)c(C(F)(F)F)c1 (single isomer, unassigned) [Example 6] | 1240 nM |
| COc1ccc(CC(C)CO)cc1C(=O)N[C@@H]1C2CCC(/C2=C/C(F)(F)F)[C@@H]1C(=O)Nc1ccc(F)c(C(F)(F)F)c1 (single isomer, unassigned) [Example 67] | 193 nM |
| COc1ccc(C(=O)NCC(C)(C)C)cc1C(=O)N[C@H]1[C@@H](C(=O)Nc2ccc(F)c(C(F)(F)F)c2)[C@H]2CC[C@@H]1/C2=C\C1CC1 [Example 238, N3-[(1R,2R,3S,4R,7Z)-7-(cyclopropyl-methylidene)-3-{[4-fluoro-3-(trifluoromethyl)phenyl]carbamoyl}bicyclo[2.2.1]heptan-2-yl]-N1-(2,2-dimethylpropyl)-4-methoxybenzene-1,3-dicarboxamide] | 14 nM |
| COc1ccc(C23CCC2CC(CO)C3)cc1C(=O)N[C@H]1[C@@H](C(=O)Nc2ccc(F)c(C(F)(F)F)c2)[C@H]2CC[C@@H]1/C2=C\C1CC1 (stereo partly drawn) [Example 353, (1R,2S,3R,4R,7Z)-7-(cyclopropyl-methylidene)-N-[4-fluoro-3-(trifluoromethyl)phenyl]-3-{5-[3-(hydroxymethyl)bicyclo[3.2.0]heptan-1-yl]-2-methoxybenzamido} bicyclo[2.2.1]heptane-2-carboxamide] | 181 nM |
